Test results: patent publication US11426385B2, “Methods of improving cancer chemotherapy” (THE REGENTS OF THE UNIVERSITY OF CALIFORNIA, priority 2017, dated 2022)
Several values for one entry are separate records, joined by “and”; a condition that tells them apart may be missing. Equal entries are not always repeated.

How the values were obtained:
[1] = tested on: carboplatin-DNA adducts in 5637 bladder cancer cell line; assay: carboplatin-DNA adduct formation in vitro (accelerator mass spectrometry)
Description: (§6) Accelerator mass spectrometry to determine platinum-DNA adduct formation.
Cells were harvested at the 4 hr time point in one group of dishes and another group was washed and further incubated for 20 hr with fresh drug-free medium before cell harvest in order to determine DNA repair. Cell pellets were stored at −80° C. until DNA extraction.

[2] = tested on: carboplatin-DNA adducts in BL0293 tumors; assay: carboplatin-DNA adduct formation in vivo (accelerator mass spectrometry); details: carboplatin alone; 24 hours after carboplatin
Description: as §6
DNA was extracted using a Promega Wizard genomic DNA purification kit according to manufacturer's instructions. Ten micrograms of DNA per sample was submitted to Lawrence Livermore National Laboratory (LLNL) for AMS analysis using previously reported protocol (25).

[3] = tested on: bladder cancer PDX BL0269; assay: tumor growth in NSG-PDX bladder cancer mouse model BL0269; format: in vivo, NSG mice
Description: (§1) Materials and Supplies. Bladder cancer subject-derived xenograft (PDX) models were provided by The Jackson Laboratory (JAX, Bar Harbor, Me.). […] All experiments utilized PDX models within the first five passages. […] Gemcitabine was purchased from LC Laboratories (Woburn, Mass.). […] The cell lines have not been tested and authenticated by the authors.
(§2) PDX bladder cancer. NSG PDX studies were performed at the University of California Davis with IACUC approval. […] Gemcitabine was dissolved in 0.9% saline and administered at a dose of 150 mg/kg (IP, weekly) for 4 weeks. Animal weight and tumor size were measured twice per week. […] The percentage of tumor growth inhibition (TGI) was calculated as follows; 100%×(1−[(V^treated(final day)−V^treated(initial day))/(V^control(final day)−V^control(initial day))]), where V is tumor volume.
(§3) Statistics. Data are presented as mean±standard error of the mean (SEM) or mean±standard deviation (SD). Group comparisons were carried out using one-way analysis of variance or Student's t test. Survival analysis was performed using the Kaplan-Meier method. A p value of less than 0.05 was considered statistically significant.

p-ERK and p-AKT = assay: Western blot of PDX BL0293 tumor tissue; format: in vivo, NSG mice; details: day 3; BL0293 tumors
Description: (§4) Blood samples from mice were collected and analyzed for complete blood count (CBC), blood urea nitrogen (BUN), aspartate aminotransferase (AST), creatinine and total bilirubin at the Veterinary Medicine Comparative Pathology Laboratory of University of California Davis. The tumor, heart, liver, spleen, lung and kidney were harvested and the tissue samples were fixed in formalin or frozen at −80° C. Tumor sections were stained with hematoxylin and eosin (H&E) or were used for immunohistochemistry analysis. A board-certified pathologist provided detailed interpretation of tumor histomorphology and scoring of immunohistochemical staining. Some of the tumor sections were lysed and chromatographed using SDS-PAGE followed by transfer onto a PVDF membrane. […] The membranes were then probed with horseradish peroxidase (HRP) tagged secondary antibodies and epitopes were detected using the ECL Plus Western Blotting Detection Reagent (GE Healthcare, Piscataway, N.J.). Cell proliferation and apoptosis assessed with Ki-67 and cleaved caspase-3 antibodies (Cell Signaling, Danvers, Mass.) using an immunohistochemistry kit per the manufacturer's instructions (BioGenex, Fremont, Calif.).

[4] = tested on: bladder cancer PDX BL0293; assay: tumor growth and survival in NSG-PDX bladder cancer mouse model BL0293; format: in vivo, NSG mice; details: for anti-tumor activity, single agent: mice bearing BL0293 tumors
Description: as §1, §2, §3

[5] = tested on: 5637 bladder cancer cells; assay: 72 hr cell viability assay (MTS) and combination index, 5637; format: cell-based, human; details: for IC50: single drug, 72 hr
Description: (§5) Median effect analysis to determine in vitro drug-drug interaction. […] PTUPB was dissolved in dimethyl sulfoxide (DMSO) to a final stock concentration of 10 mM. […] Cells were seeded at 2,000-3,000 cells and 100 μl of medium per well into 96-well plates (Becton Dickinson, Franklin Lakes, N.J.), and incubated overnight. Different concentrations of these two drugs were diluted in culture media and added to each well. The plates were then incubated for an additional 72 hours. The control group was dosed with 0.2% DMSO. Cell viability assays (MTS) were performed according to the manufacturer's protocol (Promega, Madison, Wis.). […] Dose-response curves were generated with GraphPad Prism 5 software (GraphPad Software Inc., La Jolla, Calif.). The combination indices (CI) were determined based on the method of Chou et al (26). CI values were calculated with CompuSyn software (http://www.combosyn.com/).

[6] = tested on: TCCSUP bladder cancer cell line; assay: 72 hr cell viability assay (MTS), TCCSUP; format: cell-based, human; details: PTUPB 1, 2, 5, 10 μM
Description: as §5

[7] = toxicity in PDX-bearing mice (body weight, blood counts, chemistry, histology of major organs); parameters: species or system NSG mice; details: mouse, in vivo
Description: as §2
as §4, with “C.” for “C. Tumor sections were stained with hematoxylin and eosin (H&E) or were used for immunohistochemistry analysis. A board-certified pathologist provided detailed interpretation of tumor histomorphology and scoring of immunohistochemical staining. Some of the tumor sections were lysed and chromatographed using SDS-PAGE followed by transfer onto a PVDF membrane.”

[8] = tested on: J82 bladder cancer cell line; assay: 72 hr cell viability assay (MTS), J82; format: cell-based, human; details: PTUPB 1, 2, 5, 10 μM
Description: as §5

[9] = tested on: T24 bladder cancer cell line; assay: 72 hr cell viability assay (MTS), T24; format: cell-based, human; details: PTUPB 1, 2, 5, 10 μM
Description: as §5

COX-1 = COX-1 inhibitory activity (Table 3); format: biochemical; parameters: dose or concentration left out as unconfirmed
COX-2 and sEH pathways = assay: oxylipin profile analysis (LC-MS/MS) of tumor tissue; format: in vivo, NSG mice
Description: Oxylipin profile analysis. Lipid extraction and analysis was performed as previously reported (20). Briefly, for tumor lipid mediator extraction, ˜100 mg of tumor tissues was mixed with an antioxidant solution (0.2 mg/mL butylated hydroxytoluene and 0.2 mg/mL triphenylphosphine in methanol), the surrogate solution, and 400 μL of extract solution (0.1% acetic acid with 0.2 mg/mL butylated hydroxytoluene in methanol), and then homogenized. The resulting homogenates were kept overnight at −80° C. Next day, the homogenates were centrifuged and supernatants were collected. The pellets were washed with 0.1% butylated hydroxytoluene and 0.1% acetic acid in methanol and the supernatants were collected and combined. LC-MS/MS analysis of the extracts were carried out on an Agilent 1200SL liquid chromatographic system coupled to a 4000 QTRAP MS/MS instrument (AB Sciex) as described (29).

[10] = tested on: bladder cancer PDX BL0808; assay: gemcitabine combination in bladder cancer PDX BL0808; format: in vivo
Description: PDX BL0808 was implanted into immunodeficient nod scid gamma (NSG) mice and treatment was started once tumor volume reached approximately 250 mm^3. Treatment consisted of either vehicle (5 μL/g PEG300, p.o., once daily until end of study), PTUPB (30 mg/kg in PEG300, p.o., once daily until end of study), gemcitabine (150 mg/kg in WFI, IP, once weekly, 4 times) or a combination of PTUPB with gemcitabine. Tumor volume and animal weight was monitored every other day and mice were sacrificed once tumor size reached 2 cm and tumor specific survival was recorded.

[11] = BL0293, PTUPB 30 mg/kg orally once daily, cisplatin 2 mg/kg i.v.

For carboplatin, the DNA repair rate ([1]; 5637 cells) was 21.2 +/−1.3 adducts/10^8 nt per hour, the platinum-DNA adduct formation ([1]; after 4h, carboplatin 100 μM, PTUPB 10 μM simultaneously) was 528±41 adducts per 10^8 nt and the platinum-DNA adduct levels ([1]; at 24 hours (4 hours drug, 20 hours drug-free medium)) was 104.1 +/−17.7 adducts/10^8 nt. The “carboplatin induced DNA adduct formation” value ([1]; pretreatment with 10 μM PTUPB for 5 hours, then carboplatin) was 706 +/−26 adducts per 10^8 nt and the “carboplatin-DNA adduct levels in tumor DNA” value [2] was 1070±317 adducts/10^8 nt.
With `N.N.[Cl][Pt][Cl]` [cisplatin, reference compound] the tumor growth [3] was “resistant”, the “levels of p-ERK and p-AKT” value (p-ERK and p-AKT) was “did not significantly diminish” and the overall survival [4, 11] was 47.0 days and 47 days. The “anti-tumor activity, single agent” value [4] was “moderate anti-tumor activity” and the IC50 [5] was 4.5 µM.
With `NS(=O)(=O)c1ccc(-n2nc(CCCNC(=O)Nc3ccc(C(F)(F)F)cc3)cc2-c2ccccc2)cc1` [PTUPB, 4-(5-phenyl-3-{3-[3-(4-trifluoromethyl-phenyl)-ureido]-propyl}-pyrazol-1-yl)-benzenesulfonamide] the “inhibition of tumor growth on addition to GC (gemcitabine and cisplatin)” value ([3]; PTUPB 30 mg/kg, cisplatin 2 mg/kg, gemcitabine 150 mg/kg) was “best inhibition of tumor growth”, the “potentiation of cisplatin with respect to inhibiting tumor growth” value ([3]; combined with cisplatin 2 mg/kg) was “best and most statistically significant potentiation” and the “effect on cisplatin cytotoxicity” value [6] was “did not increase cisplatin cytotoxicity”. For the same molecule, the body weight change [7] was “slightly decreased body weight”, the “histology examination of major organs” value [7] was “no such morphology changes were observed” and the “effect on cisplatin cytotoxicity” value [8] was “did not increase cisplatin cytotoxicity”. The “effect on cisplatin cytotoxicity” value [9] was “did not increase cisplatin cytotoxicity”, the “COX-1 (% inhibition)” value (COX-1) was 22.7% and the “levels of p-ERK and p-AKT” value (p-ERK and p-AKT) was “did not significantly diminish”. For the same molecule, the “effect on diol metabolites 10,11-DiHDPE and 15,16-DiHODE” value (COX-2 and sEH pathways; BL0269 tumors) was “no effect”, the “increase of 10,11-EpDPE, 15,16-EpODE” value (COX-2 and sEH pathways; BL0269 tumors) was “approximately two-fold increase” and the “reduction of levels of prostaglandins PGE2, PGD2, TXB2, 6-keto-PGF1α in tumor” value (COX-2 and sEH pathways; mouse, in vivo) was roughly 50%. The “decrease of diol metabolite 12,13-DiHOME” value (COX-2 and sEH pathways; tumor) was roughly 2 fold, the “increase of 12,13-EpOME” value (COX-2 and sEH pathways; tumor) was “approximately two-fold increase” and the “gemcitabine chemotherapy efficacy (tumor volume)” value ([10]; PTUPB 30 mg/kg p.o. with gemcitabine 150 mg/kg IP) was “extends gemcitabine chemotherapy efficacy”. The “gemcitabine toxicity (animal weight)” value ([10]; PTUPB with gemcitabine) was “does not increase gemcitabine toxicity”, the tumor specific survival ([10]; PTUPB with gemcitabine) was “increases tumor specific survival” and the “median time to a […] increase in tumor volume” value [4, 11] was 24.4 days. The overall survival [4, 11] was 39.4 days, the “anti-tumor activity, single agent” value [4] was “moderate anti-tumor activity” and the IC50 ([5]; Homo sapiens) was 90.4 µM. For the same molecule, the “drug-drug interaction with cisplatin (combination index)” value ([5]; PTUPB 1, 2, 5 and 10 μM with cisplatin at 5 μM) was “modest synergistic effects”.
